Data reported in US10894817B2, “Fatty acid modified urocortin-2 analogs for the treatment of diabetes and chronic kidney disease” (priority 2016, dated 2021).
Read-outs that look alike come from different tables or passages of the source. Marks after values point to notes of the source that are not given here. Starred links: 1 amine or outer side, 2 acyl side, 3 side chain; linkers in the order of their positions; H or OH if unused. Non-standard residues stand in square brackets, D forms with d. Residues, ends and D or L forms follow the SMILES beside them. Groups on a side chain read outwards from the residue. *: point of attachment. C20 diacid = O=C(O)CCCCCCCCCCCCCCCCCCC(=O)*; C18 diacid = O=C(O)CCCCCCCCCCCCCCCCC(=O)*; γGlu = O=C(O)[C@H](CCC(=O)[*:2])N[*:1]; NMeI = CC[C@H](C)[C@H](NC)C(=O)O; AEEA = NCCOCCOCC(=O)O

Experiments:
[1] = Pharmacokinetics, single subcutaneous dose, mice; conditions: male, CD-1, mouse, plasma, sc, 388 nmol/kg
Procedure: Plasma concentrations of compounds were determined by LC/MS methods. Each method measured the intact compound; peptide plus linked time extension. For each assay, the compound and an analog, used as an internal standard (IS), were extracted from 100% mouse, rat or monkey plasma (25 μl) using acetonitrile. Two distinct layers were formed upon centrifugation with the compound and the IS located in the supernatant layer. An aliquot of the supernatant (80 μl) was transferred to a Thermo Protein Precipitation Plate with water (150 μl) and formic acid (25 μl) followed by mixing. A final 31% acetonitrile in 10% formic acid sample (10 μl) was loaded onto a Supelco Analytical Discovery BIO Wide Pore C5-3 column (5 cm×1 mm, 3 μm). The column effluent was directed into a Thermo Q-Exactive mass spectrometer for detection and quantitation.
Male CD-1 mice were administered a single subcutaneous dose (350, 386 or 388 nmol/kg) of a compound described herein in 20 mM Tris-HCl Tris Buffer (pH 7 or 8) at a volume of 0.05 or 0.06 mL/animal. Blood was collected at 6, 12, 24, 48, 72, 96, 120 and 168 hours postdose for pharmacokinetic characterization (101).

[2] = target: T1, human CRHR2b (Homo sapiens, UniProt Q13324); test: human CRHR2b cell-based cAMP assay; conditions: cAMP assay, read-out: hCRHR2b Average EC50
T1 construct: expressed in transfected cells; host or cells: Chinese Hamster Ovary (CHO) cells, transient transfection
T1 sequence (Q13324 1-438 isoform Q13324-2): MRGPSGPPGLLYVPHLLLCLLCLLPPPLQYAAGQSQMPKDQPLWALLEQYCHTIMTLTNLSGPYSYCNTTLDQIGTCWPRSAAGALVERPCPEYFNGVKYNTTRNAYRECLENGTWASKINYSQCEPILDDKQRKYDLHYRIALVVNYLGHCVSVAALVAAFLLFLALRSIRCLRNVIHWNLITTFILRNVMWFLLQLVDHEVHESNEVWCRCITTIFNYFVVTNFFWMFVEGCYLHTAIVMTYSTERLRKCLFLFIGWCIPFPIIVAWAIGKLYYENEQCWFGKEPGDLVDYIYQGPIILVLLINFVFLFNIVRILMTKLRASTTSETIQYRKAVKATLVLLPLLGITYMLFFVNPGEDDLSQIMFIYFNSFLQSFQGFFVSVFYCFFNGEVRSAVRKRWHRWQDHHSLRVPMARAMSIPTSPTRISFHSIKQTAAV
Outline: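 ED50 values are means ± SEM over several runs, curve-fitted from cAMP in pmol, calibrated against unlabeled-cAMP standards. Detection was HTRF competition, ratio 665/620 nm, after 30 min agonist exposure at 37 °C.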

[3] = test system: UniNx db/db AAV renin mice; test: Uninephrectomized db/db AAV renin model of diabetic nephropathy; type: in vivo
Procedure: The uninephrectomized db/db adeno-associated viral (AAV) renin model represents a progressive model of diabetic kidney disease with hypertension driven by an AAV renin transgene (Am J Physiol Regul Integr Comp Physiol. 309(5):R467-74, (2015)).
The uninephrectomy (UniNx) surgery on female db/db mice on a C57BLKS/J background (obtained from Harlan Laboratories) is performed by Harlan Laboratories at 4 weeks of age with removal of the right kidney to accelerate the diabetic kidney disease. Animals are received at 5 weeks of age and housed in micro-isolator cages at 3 mice per cage and are on a 12 hour light/dark cycle. All db/db mice are fed ad libitum with Purina special diet 5008 and allowed free access to autoclaved water.
Mice are acclimated for 7 weeks prior to administration of AAV Renin (5×10^9 GC) intravenously by the retro-orbital sinus to induce persistent hypertension. Randomization by urine albumin to creatinine ratio (ACR), blood glucose and body weight is done at 15 weeks of age (a point at which renal disease and pathology are established in this model based on observations) into 2 groups of 12 saline control mice and 33 mice to receive Lisinopril treatment.
Dosing with Lisinopril (30 mg/L) begins at 16 weeks of age. After 2 weeks of Lisinopril treatment, the 33 mice are randomized by urine ACR, blood glucose and body weight into 4 groups (one group of 9 mice and 3 groups of 8 mice).
In the 4 groups of UniNx db/db AAV renin mice receiving Lisinopril treatment, either 0.9% physiological saline for injection (“saline control” N=9) or different dose levels of Example 4 (7.2, 24 or 72 nmol/kg, N=8 per dose level) are dosed at 0.2 mL s.c. per injection beginning at 18 weeks of age and continued 3 times weekly for 12 weeks. Albumin and creatinine are measured in urine with a Roche Hitachi Modular Analytics P analyzer with Roche reagents for detection of albumin and creatinine.
For all the groups, the parameters measured are body weight, kidney weight, heart weight, urine albumin to creatinine ratio, serum creatinine and renal pathology scores for mesangial matrix expansion, glomerular fibrosis, tubular regeneration, interstitial inflammation and interstitial fibrosis.
At 15 and 27 weeks of age, blood (30 to 50 uL) from all the UniNx db/db AAV Renin mice is obtained from the tail vein and dropped onto a Precision PCx blood glucose sensor electrode strip (Abbott Laboratories) for blood glucose determination with a MediSense Precision PCx glucometer (Abbott Laboratories). Blood glucose data is used to block the UniNx db/db mice into equivalent groups. Body weight is determined at baseline and at termination with a Metler Toledo Balance. The heart and kidney are removed at necropsy and weighed on a Metler Toledo Balance. Blood (500 ul) is collected from the retro-orbital sinus at termination under isoflurane anesthesia. The clotted blood is centrifuged to obtain serum. Serum is analyzed for creatinine on a Roche Hitachi Modular Analytics P analyzer with reagents from Roche.
Urine is collected by a spot collection method to collect urine over a 2-4 hr time period. An individual mouse is placed on top of a 96 well polypropylene microplate and then covered by a Plexiglas chamber with holes for breathing but no access to food or water. At the end of the time period, the urine is removed from the plate with a micropipette and placed on ice, centrifuged and subjected to albumin and creatinine analysis. Urine albumin, creatinine and glucose are determined on a Roche Hitachi Modular Analytics P analyzer. Urine creatinine is determined with the Creatinine Plus reagent by Roche. For urine albumin, the Roche Microalbumin assay is modified to adapt the calibration curve for measuring urine albumin in mice. Albuminuria was defined as albumin to creatinine ratio (ACR).
Kidneys are removed at study termination, fixed in formalin and processed for paraffin sectioning according to standard methodology. […]

[4] = CHO cells transfected with human CRHR2b, mean ± SEM of runs
[5] = Lisinopril plus Saline, after 12 weeks, scale none (0) to severe (5)
[6] = UniNx db/db AAV renin mice, Lisinopril plus Saline, after 12 weeks
[7] = UniNx db/db AAV renin mice, Lisinopril plus Saline, baseline

CC[C@H](C)[C@H](NC(C)=O)C(=O)N[C@H](C(=O)N[C@@H](CC(C)C)C(=O)N[C@@H](CO)C(=O)N[C@@H](CC(C)C)C(=O)N[C@@H](CC(=O)O)C(=O)N[C@H](C(=O)N1CCC[C@H]1C(=O)N[C@H](C(=O)NCC(=O)N[C@@H](CC(C)C)C(=O)N[C@@H](CC(C)C)C(=O)N[C@@H](CCC(N)=O)C(=O)N[C@H](C(=O)N[C@@H](CC(C)C)C(=O)N[C@@H](CC(C)C)C(=O)N[C@@H](CCC(=O)O)C(=O)N[C@@H](CCC(N)=O)C(=O)N[C@@H](CCC(=O)O)C(=O)N[C@@H](CCCCN)C(=O)N[C@@H](CCC(N)=O)C(=O)N[C@@H](CCC(=O)O)C(=O)N[C@@H](CCCCN)C(=O)N[C@@H](CCC(=O)O)C(=O)N[C@@H](CCCCN)C(=O)N[C@@H](CCC(N)=O)C(=O)N[C@@H](CCC(N)=O)C(=O)N[C@@H](C)C(=O)N[C@@H](CCCCNC(=O)COCCOCCNC(=O)COCCOCCNC(=O)CC[C@H](NC(=O)CC[C@H](NC(=O)CCCCCCCCCCCCCCCCC(=O)O)C(=O)O)C(=O)O)C(=O)N[C@H](C(=O)N[C@@H](CC(N)=O)C(=O)N[C@@H](C)C(=O)N[C@@H](CCC(N)=O)C(=O)N[C@H](C(=O)N[C@@H](CC(C)C)C(=O)N[C@@H](C)C(=O)N[C@@H](CCC(N)=O)C(=O)N[C@H](C(N)=O)C(C)C)[C@@H](C)CC)[C@@H](C)O)[C@@H](C)CC)[C@@H](C)CC)C(C)C)C(C)C [Example 1] (Ac-IVLSLDVPIGLLQILLEQEKQEKEKQQAK([AEEA-AEEA-γGlu-γGlu-C18 diacid])TNAQILAQV-NH2)
AUC(0-inf) [1]: 32.2 µM·h | CL/F [1]: 0.202 mL/min/kg | Cmax [1]: 1150 nM | Tmax [1]: 12 h | half-life [1]: 960 min | EC50 [2, 4]: 2.44 ± 1.36 nM

CC[C@H](C)[C@H](NC)C(=O)N[C@H](C(=O)N[C@H](C(=O)N[C@@H](CO)C(=O)N[C@@H](CC(C)C)C(=O)N[C@@H](CC(=O)O)C(=O)N[C@H](C(=O)N1CCC[C@H]1C(=O)N[C@H](C(=O)NCC(=O)N[C@@H](CC(C)C)C(=O)N[C@@H](CC(C)C)C(=O)N[C@@H](CCC(N)=O)C(=O)N[C@H](C(=O)N[C@@H](CC(C)C)C(=O)N[C@@H](CC(C)C)C(=O)N[C@@H](CCC(=O)O)C(=O)N[C@@H](CCC(N)=O)C(=O)N[C@@H](CCC(=O)O)C(=O)N[C@@H](CCCCN)C(=O)N[C@@H](CCC(N)=O)C(=O)N[C@@H](CCC(=O)O)C(=O)N[C@@H](CCCCN)C(=O)N[C@@H](CCC(=O)O)C(=O)N[C@@H](CCCCN)C(=O)N[C@@H](CCC(N)=O)C(=O)N[C@@H](CCC(N)=O)C(=O)N[C@@H](C)C(=O)N[C@@H](CCCCNC(=O)COCCOCCNC(=O)COCCOCCNC(=O)CC[C@H](NC(=O)CC[C@H](NC(=O)CCCCCCCCCCCCCCCCCCC(=O)O)C(=O)O)C(=O)O)C(=O)N[C@H](C(=O)N[C@@H](CC(N)=O)C(=O)N[C@@H](C)C(=O)N[C@@H](CCC(=O)O)C(=O)N[C@H](C(=O)N[C@@H](CC(C)C)C(=O)N[C@@H](C)C(=O)N[C@@H](CCC(N)=O)C(=O)N[C@H](C(N)=O)C(C)C)[C@@H](C)CC)[C@@H](C)O)[C@@H](C)CC)[C@@H](C)CC)C(C)C)[C@@H](C)O)C(C)C [Example 5] (H-[NMeI]VTSLDVPIGLLQILLEQEKQEKEKQQAK([AEEA-AEEA-γGlu-γGlu-C20 diacid])TNAEILAQV-NH2)
EC50 [2, 4]: 1.01 ± 0.23 nM

CC[C@H](C)[C@H](NC)C(=O)N[C@H](C(=O)N[C@H](C(=O)N[C@@H](CO)C(=O)N[C@@H](CC(C)C)C(=O)N[C@@H](CC(=O)O)C(=O)N[C@H](C(=O)N1CCC[C@H]1C(=O)N[C@H](C(=O)NCC(=O)N[C@@H](CC(C)C)C(=O)N[C@@H](CC(C)C)C(=O)N[C@@H](CCC(N)=O)C(=O)N[C@H](C(=O)N[C@@H](CC(C)C)C(=O)N[C@H](C(=O)N[C@@H](CCC(=O)O)C(=O)N[C@@H](CCC(N)=O)C(=O)N[C@@H](CCC(=O)O)C(=O)N[C@@H](CCCCN)C(=O)N[C@@H](CCC(N)=O)C(=O)N[C@@H](CCC(=O)O)C(=O)N[C@@H](CCCCN)C(=O)N[C@@H](CCC(=O)O)C(=O)N[C@@H](CCCCN)C(=O)N[C@@H](CCC(N)=O)C(=O)N[C@@H](CCC(N)=O)C(=O)N[C@@H](C)C(=O)N[C@@H](CCCCNC(=O)COCCOCCNC(=O)COCCOCCNC(=O)CC[C@H](NC(=O)CC[C@H](NC(=O)CCCCCCCCCCCCCCCCCCC(=O)O)C(=O)O)C(=O)O)C(=O)N[C@H](C(=O)N[C@@H](CC(N)=O)C(=O)N[C@@H](C)C(=O)N[C@@H](CCC(=O)O)C(=O)N[C@H](C(=O)N[C@@H](CC(C)C)C(=O)N[C@@H](C)C(=O)N[C@@H](CCC(N)=O)C(=O)N[C@H](C(N)=O)C(C)C)[C@@H](C)CC)[C@@H](C)O)[C@@H](C)CC)[C@@H](C)CC)[C@@H](C)CC)C(C)C)[C@@H](C)O)C(C)C [Example 7] (H-[NMeI]VTSLDVPIGLLQILIEQEKQEKEKQQAK([AEEA-AEEA-γGlu-γGlu-C20 diacid])TNAEILAQV-NH2)
EC50 [2, 4]: 0.94 ± 0.05 nM

NCCCC[C@H](N[C@@H](CCc1ccccc1)C(=O)O)C(=O)N1CCC[C@H]1C(=O)O [Lisinopril]
Glomerular Fibrosis, pathology score [3, 5]: 1.4 ± 0.2 ^a | Interstitial Fibrosis, pathology score [3, 5]: 2.0 ± 0.3 ^ | Interstitial Inflammation, pathology score [3, 5]: 1.1 ± 0.3 ^a | Mesangial Matrix Expansion, pathology score [3, 5]: 2.1 ± 0.1 ^a | Tubular Regeneration, pathology score [3, 5]: 2.0 ± 0.2 ^a | Albumin to Creatinine Ratio (ACR) ([3]; Lisinopril plus Saline, week 0 of treatment with Example 4): 15203 ± 2835 ^ | Albumin to Creatinine Ratio (ACR) ([3]; Lisinopril plus Saline, week 1): 16491 ± 3362 ^ | Albumin to Creatinine Ratio (ACR) ([3]; Lisinopril plus Saline, week 2): 16160 ± 4162 ^a | Albumin to Creatinine Ratio (ACR) ([3]; Lisinopril plus Saline, week 3): 13069 ± 3295 ^a | Albumin to Creatinine Ratio (ACR) ([3]; Lisinopril plus Saline, week 6): 11584 ± 3132 ^a | Albumin to Creatinine Ratio (ACR) ([3]; Lisinopril plus Saline, week 8): 12484 ± 4626 ^a | Albumin to Creatinine Ratio (ACR) ([3]; Lisinopril plus Saline, week 10): 20429 ± 4998 ^a | Albumin to Creatinine Ratio (ACR) ([3]; Lisinopril plus Saline, week 12): 19075 ± 6268 ^a | deaths over the course of the study ([3]; Lisinopril plus saline group (N=9)): 2 | Final Blood Glucose [3, 6]: 466 mg/dL | Final Body Weight [3, 6]: 61.8 g | Heart Weight [3, 6]: 227 mgs | Kidney Weight [3, 6]: 392 mgs | Serum Creatinine [3, 6]: 0.130 mg/dL | Initial Blood Glucose [3, 7]: 444 mg/dL | Initial Body Weight [3, 7]: 61.6 g

IVLSLDVPIGLLQILLEQEKQEKEKQQAK*ENAQILAQV-NH2 [Compound 56, K* at position 29 bonded with ([2-(2-Amino-ethoxy)-ethoxy]-acetyl)2-γE-CO—(CH2)16—COOH; C-terminal primary amide]
EC50 ([2]; Table 26, compounds of Example 9): 1.17 nM
